Patent US20140024132A1, “METHODS AND SYSTEMS USING INTEGRATED METABOLOMICS AND PHARMACOKINETICS FOR MULTI-COMPONENT DRUG EVALUATION” (priority 2010, published 2014)

How the values were obtained:
[1] = Urine levels of biotransformed Pu-erh tea metabolites (produced in vivo) after a single Pu-erh tea intake, UPLC-QTOFMS and GC-TOFMS profiling; design: species or system human
Protocol: Approximately 1 kg of 5-year-old Pu-erh tea was mixed to produce a homogeneous sample, and then ground into a fine powder and filtered through a 20 mesh screen. The Pu-erh tea was prepared by infusing 10 g powder in 200 mL boiling water for 10 min, followed by straining. Participants received a dose equivalent to 5 cups of commercially prepared tea. Twenty healthy men (n=10) and women (n=10) whose mean age was 25±2 years (range 22-32) were enrolled in this study, and written consent was obtained from each participant.
Volunteers were provided with identical standard meals three times per day during the experiment (e.g., breakfast: milk and bread; lunch: beef and vegetables; dinner: pork and cabbage). Urine samples of 12 healthy men (n=6) and women (n=6) selected from the 20 participants were collected just before breakfast including the 200 mL Pu-erh tea and at 1 h, 3 h, 6 h, 9 h, 12 h, and 24 h thereafter. Spot urine samples of all 20 participants were collected daily between 11:00 and 11:30 a.m. during a 6-week period that included a 2-week baseline phase, a 2-week daily Pu-erh tea ingestion phase, and a 2-week post-dosing phase. […] Urine samples were stored at −80° C. before analysis.
(§1) The tea infusion used in this study and the collected urine samples were centrifuged at 13,000 rpm for 10 min at 4° C., and the resulting supernatants were immediately stored at −80° C. pending UPLC-QTOFMS analysis. Ultrapure water (500 μL) was added to the tea or urine sample (500 μL) and vortexed for 1 min. The sample was then filtered through a syringe filter (0.22 μm) for UPLC-QTOFMS analysis.; incorporated by reference herein in its entirety.
(§2) The tea infusion (100 μL) described in Example 2 and urine samples (100 μL) were spiked with two internal standard solutions (10 μL-2-chlorophenylalanine in water, 0.3 mg/ml; 10 μL heptadecanoic acid in methanol, 1 mg/mL), and vortexed for 10 seconds. The mixed solution was extracted with 300 μL of methanol:chloroform (v/v 3:1) and vortexed for 30 seconds. After storing for 10 min at −20° C., the samples were centrifuged at 10,000 rpm for 10 min. An aliquot of the 300 μL supernatant was transferred to a glass sampling vial to vacuum dry at room temperature. The residue was derivatized using a two-step procedure. First, 80 μL methoxyamine (15 mg/mL in pyridine,) was added to the vial and kept at 30° C. for 90 min followed by 80 μL BSTFA (1% TMCS) at 70° C. for 60 min. See protocols set forth in Ni et al., FEBS Lett. 581: 707-711 (2007).; incorporated by reference herein in its entirety.
(§3) UPLC: Tea and urine metabolite profiling were performed using a Waters ACQUITY UPLC system equipped with a binary solvent delivery manager and a sample manager (Waters Corporation, Milford, Mass., USA), coupled to a Micromass Q-TOF Premier mass spectrometry equipped with an electrospray interface (Waters Corporation, Milford, M A, USA). Chromatographic separations were performed on a 2.1×100 mm 1.7 μm ACQUITY BEH C18 chromatography column. The column was maintained at 45° C. and eluted with a 1-99% acetonitrile (0.1% (v/v) formic acid)-aqueous formic acid (0.1% (v/v) formic acid) gradient over 10 min at a flow rate of 0.40 mL/min. A 5 μL aliquot sample was injected onto the column.
Mass Spectrometry: The mass accuracy analysis and detailed MS parameters were optimized according to our prior studies, which is incorporated herein in its entirety. During metabolite profiling experiments, centroid data was acquired for each sample from 50 to 1000 Da with a 0.10 sec scan time and a 0.01 sec interscan delay over a 10 min analysis time. A metabonomics MS System Test Mixture including acetaminophen, tolbutamide, 3′-azido-3′-deoxythymidine, reserpine, verapamil and coumarin was used as chromatographic reference and mass accuracy quality control. This test mixture was injected every ten injections. The mass spectrometer was operated in positive ion mode. […]

[2] = Urine levels of absorbed (bioavailable) Pu-erh tea components after a single Pu-erh tea intake, UPLC-QTOFMS and GC-TOFMS profiling; format: in vivo, human; details: absorbed Pu-erh tea metabolite, human urine
Protocol: (§4) Participants received a dose equivalent to 5 cups of commercially prepared tea. Twenty healthy men (n=10) and women (n=10) whose mean age was 25±2 years (range 22-32) were enrolled in this study, and written consent was obtained from each participant.
(§5) Volunteers were provided with identical standard meals three times per day during the experiment (e.g., breakfast: milk and bread; lunch: beef and vegetables; dinner: pork and cabbage). […] Urine samples were stored at −80° C. before analysis.
as §1, §2, §3
(§6) Mass Spectrometry: The mass accuracy analysis and detailed MS parameters were optimized according to our prior studies, which is incorporated herein in its entirety. During metabolite profiling experiments, centroid data was acquired for each sample from 50 to 1000 Da with a 0.10 sec scan time and a 0.01 sec interscan delay over a 10 min analysis time. A metabonomics MS System Test Mixture including acetaminophen, tolbutamide, 3′-azido-3′-deoxythymidine, reserpine, verapamil and coumarin was used as chromatographic reference and mass accuracy quality control. This test mixture was injected every ten injections. The mass spectrometer was operated in positive ion mode. The desolvation temperature was set to 400° C. at a flow rate of 700 L/hr and source temperature of 100° C. The capillary and cone voltages were set to 3500 and 45 V, respectively. The data was collected between 50-1000 m/z with alternating collision energy, at 5 eV for precursor ion information generation and a collision profile from 10-40 eV for fragment ion information. The Q-TOF Premier™ was operated in v mode with 10,000 mass resolving power. Data were centroided during acquisition using independent reference lock-mass ions via the LockSpray™ interface to ensure mass accuracy and reproducibility. Leucine-enkephalin was used as the reference compound at a concentration of 50 pg/μL and an infusion flow rate of 0.05 mL/min.

[3] = system: endogenous urinary metabolite profiles; assay: Altered endogenous urinary metabolites after a single Pu-erh tea intake, UPLC-QTOFMS and GC-TOFMS profiling; format: in vivo; details: human urine
Protocol: as §4, §5, §1, §2, §3, §6

[4] = system: human metabolite endpoints; assay: Urinary metabolomic response during 6-week study (24 h, 2 week daily Pu-erh tea intake, 2 week wash-out) vs pre-dose, OPLS-DA and S-plot; format: in vivo; details: 2 week of Pu-erh tea daily intake vs pre-dose, human urine
Protocol: as §5

[5] = 3 h after Pu-erh tea intake vs pre-dose
[6] = 6 h after Pu-erh tea intake vs pre-dose
[7] = 9 h after Pu-erh tea intake vs pre-dose
[8] = 12 h after Pu-erh tea intake vs pre-dose
[9] = 24 h after Pu-erh tea intake vs pre-dose
[10] = 1 h after Pu-erh tea intake vs pre-dose

Row | Compound | FC (fold change) ([2]; 1 h post-dose vs pre-dose) | FC (fold change) ([2]; 3 h post-dose vs pre-dose) | FC (fold change) ([2]; 6 h post-dose vs pre-dose) | FC (fold change) ([2]; 9 h post-dose vs pre-dose) | FC (fold change) ([2]; 12 h post-dose vs pre-dose) | FC (fold change) ([2]; 24 h post-dose vs pre-dose) | FC (fold change) [3, 10] | FC (fold change) [3, 5] | FC (fold change) [3, 6] | FC (fold change) [3, 7] | FC (fold change) [3, 8] | FC (fold change) [3, 9] | other results
1 | CCN [Ethylamine] |  |  |  |  |  |  |  |  |  |  |  |  | FC (fold change) [1, 5]: 3.10; FC (fold change) [1, 6]: 3.87; FC (fold change) [1, 7]: 2.65; FC (fold change) [1, 8]: 3.09; FC (fold change) [1, 9]: 1.58; FC (fold change) ([1]; l h after Pu-erh tea intake vs pre-dose): 1.73
2 | NCCCC(=O)O [4-Aminobutanoic acid] | 3.95 | 5.14 | 24.12 | 39.08 | 100.29 | 49.03 | 3.95 | 5.14 | 24.12 | 39.08 | 100.29 | 49.03 | 
3 | COc1cc(CC(=O)O)ccc1O [4-Hydroxy-3-methoxyphenylacetic acid] |  |  |  |  |  |  | 0.39 | 0.11 | 0.27 | 0.55 | 0.85 | 1.12 | 
4 | CC(C)[C@H](N)C(=O)O [Valine] |  |  |  |  |  |  | 2.58 | 1.25 | 2.16 | 2.32 | 2.76 | 1.38 | 
5 | O=C(O)c1cccnc1 [Nicotinic acid] | 14.31 | 62.95 | 78.98 | 63.95 | 49.02 | 27.31 |  |  |  |  |  |  | 
6 | Cn1cnc2c1c(=O)[nH]c(=O)n2C [Theobromine] | 4.04 | 6.76 | 7.75 | 5.42 | 4.43 | 2.67 |  |  |  |  |  |  | 
7 | O[C@H]1[C@H](O)[C@@H](O)[C@H](O)[C@@H](O)[C@H]1O [inositol] |  |  |  |  |  |  |  |  |  |  |  |  | change of urinary excretion / concentration [4]: increased
8 | Oc1ccccc1 [Phenol] |  |  |  |  |  |  | 1.04 | 1.22 | 1.43 | 1.14 | 1.32 | 2.22 | 
9 | O=C(O)c1cc(O)cc(O)c1 [3,5-hydroxy benzoic acid] |  |  |  | 0.42 | 0.47 | 0.20 |  |  |  |  |  |  | 
10 | Cn1c(=O)c2[nH]cnc2n(C)c1=O [Theophylline] | 11.62 | 42.69 | 54.55 | 45.99 | 38.67 | 19.22 |  |  |  |  |  |  | 
11 | COc1ccc(CC(=O)O)cc1 [4-methoxyphenylacetic acid] |  |  |  |  |  |  |  |  |  |  |  |  | change of urinary excretion / concentration [4]: increased
12 | O=C(O)CC(O)(CC(=O)O)C(=O)O [Citric acid] | 1.42 | 1.76 | 1.59 | 1.20 | 1.42 | 1.17 |  |  |  |  |  |  | 
13 | COc1ccccc1O [2-Methoxyphenol] |  |  |  |  |  |  | 0.48 | 0.31 | 0.31 | 0.41 | 0.59 | 0.61 | 
14 | N[C@@H](Cc1c[nH]c2ccc(O)cc12)C(=O)O [5-hydroxytryptophan] |  |  |  |  |  |  |  |  |  |  |  |  | change of urinary excretion / concentration [4]: increased
15 | NC(C(=O)O)C(=O)O [Aminomalonic acid] |  |  |  |  |  |  | 1.90 | 3.09 | 3.09 | 0.45 | 0.57 | 0.35 | 
16 | NCC(=O)O [Glycine] | 1.28 | 1.67 | 2.32 | 1.53 | 1.77 | 1.04 |  |  |  |  |  |  | 
17 | 3-chlorotyrosine-2-aminobenzoic acid |  |  |  |  |  |  |  |  |  |  |  |  | change of urinary excretion / concentration [4]: decreased
18 | Cc1cnc(C)c(O)c1C=O [5-Deoxypyridoxal] | 2.56 | 3.69 | 3.68 | 2.35 | 0.91 | 0.81 |  |  |  |  |  |  | 
19 | O=C(O)CCC(=O)O [Succinate] | 1.15 | 0.90 | 0.74 | 0.57 | 0.84 | 0.93 |  |  |  |  |  |  | 
20 | Oc1ccc2[nH]c(O)cc2c1 [2,5-dihydroxy-1H-indole] |  |  |  |  |  |  |  |  |  |  |  |  | change of urinary excretion / concentration [4]: decreased
